≈ marks a conversion by molar mass, not a printed value.
Key:
[1] = target: T1, Carnitine O-palmitoyltransferase 1, muscle isoform (Homo sapiens, UniProt Q92523); experiment: SUPPLEMENTARY: Inhibition of Carnitine palmitoyltransferase 1, muscle isoform; design: species or system Muscle tissue
T1 sequence (Q92523 whole entry): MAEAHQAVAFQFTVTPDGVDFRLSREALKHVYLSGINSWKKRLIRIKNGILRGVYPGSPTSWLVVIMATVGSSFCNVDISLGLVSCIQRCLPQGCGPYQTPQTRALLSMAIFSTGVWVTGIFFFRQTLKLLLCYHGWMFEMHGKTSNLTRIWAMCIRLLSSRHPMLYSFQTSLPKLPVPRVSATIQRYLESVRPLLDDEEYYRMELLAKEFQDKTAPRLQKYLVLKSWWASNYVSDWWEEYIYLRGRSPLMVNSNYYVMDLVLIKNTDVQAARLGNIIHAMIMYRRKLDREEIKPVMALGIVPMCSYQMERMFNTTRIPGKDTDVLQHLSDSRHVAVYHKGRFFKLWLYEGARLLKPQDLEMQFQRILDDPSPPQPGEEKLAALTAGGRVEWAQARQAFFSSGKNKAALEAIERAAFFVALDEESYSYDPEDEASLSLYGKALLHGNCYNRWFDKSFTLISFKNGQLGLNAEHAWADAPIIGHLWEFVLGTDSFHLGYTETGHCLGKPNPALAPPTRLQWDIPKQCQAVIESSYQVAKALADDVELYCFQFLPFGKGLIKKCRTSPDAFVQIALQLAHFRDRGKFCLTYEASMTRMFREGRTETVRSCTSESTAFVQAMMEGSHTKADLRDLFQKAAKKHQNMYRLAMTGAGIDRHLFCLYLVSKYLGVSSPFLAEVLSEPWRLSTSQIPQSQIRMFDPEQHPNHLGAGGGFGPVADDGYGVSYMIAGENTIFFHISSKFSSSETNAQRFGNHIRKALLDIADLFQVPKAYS

[2] = target: T2, Carnitine O-palmitoyltransferase 2, mitochondrial (Homo sapiens, UniProt P23786); experiment: (§1) SUPPLEMENTARY: Inhibition of Carnitine palmitoyltransferase 2
T2 sequence (P23786 whole entry): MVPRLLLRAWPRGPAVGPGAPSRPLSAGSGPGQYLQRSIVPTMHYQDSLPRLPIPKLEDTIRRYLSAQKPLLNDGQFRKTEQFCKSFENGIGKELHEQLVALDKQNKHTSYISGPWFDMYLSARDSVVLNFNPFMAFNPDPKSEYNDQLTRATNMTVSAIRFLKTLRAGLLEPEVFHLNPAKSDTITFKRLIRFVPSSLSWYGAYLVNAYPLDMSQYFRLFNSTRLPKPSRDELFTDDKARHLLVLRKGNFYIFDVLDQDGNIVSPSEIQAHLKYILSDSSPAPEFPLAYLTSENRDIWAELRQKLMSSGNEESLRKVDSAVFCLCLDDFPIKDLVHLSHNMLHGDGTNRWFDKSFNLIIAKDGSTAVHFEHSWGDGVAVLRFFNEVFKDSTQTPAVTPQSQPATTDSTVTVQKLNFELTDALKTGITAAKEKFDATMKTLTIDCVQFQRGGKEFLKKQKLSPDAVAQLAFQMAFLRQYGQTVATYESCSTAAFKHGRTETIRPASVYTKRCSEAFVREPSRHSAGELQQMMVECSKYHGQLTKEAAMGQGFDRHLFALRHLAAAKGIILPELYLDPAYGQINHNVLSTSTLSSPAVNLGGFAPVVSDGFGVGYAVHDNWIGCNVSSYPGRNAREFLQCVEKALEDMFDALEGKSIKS

[3] = target: T3, Carnitine O-palmitoyltransferase 2, mitochondrial (Rattus norvegicus, UniProt P18886); experiment: as §1
T3 sequence (P18886 whole entry): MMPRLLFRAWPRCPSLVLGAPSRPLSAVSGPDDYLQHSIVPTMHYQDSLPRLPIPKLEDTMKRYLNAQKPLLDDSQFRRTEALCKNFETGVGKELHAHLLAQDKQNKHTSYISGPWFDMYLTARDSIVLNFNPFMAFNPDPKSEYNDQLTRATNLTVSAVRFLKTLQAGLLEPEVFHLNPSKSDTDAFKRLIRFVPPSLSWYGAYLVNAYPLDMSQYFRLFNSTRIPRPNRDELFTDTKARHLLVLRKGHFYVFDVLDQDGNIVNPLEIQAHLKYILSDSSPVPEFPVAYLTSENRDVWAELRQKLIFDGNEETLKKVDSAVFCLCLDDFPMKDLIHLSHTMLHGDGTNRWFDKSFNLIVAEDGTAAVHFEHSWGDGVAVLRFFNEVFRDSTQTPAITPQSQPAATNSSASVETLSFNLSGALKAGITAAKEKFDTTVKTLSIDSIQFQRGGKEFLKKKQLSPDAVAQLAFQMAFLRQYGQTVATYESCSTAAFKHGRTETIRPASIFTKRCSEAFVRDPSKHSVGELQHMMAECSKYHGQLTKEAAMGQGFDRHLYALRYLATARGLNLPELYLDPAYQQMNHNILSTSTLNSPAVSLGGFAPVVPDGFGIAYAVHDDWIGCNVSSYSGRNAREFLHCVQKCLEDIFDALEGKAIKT

[4] = target: T4, Carnitine O-palmitoyltransferase 1, liver isoform (Homo sapiens, UniProt P50416); experiment: (§2) SUPPLEMENTARY: Inhibition of Carnitine palmitoyltransferase 1, liver isoform
T4 sequence (P50416 whole entry): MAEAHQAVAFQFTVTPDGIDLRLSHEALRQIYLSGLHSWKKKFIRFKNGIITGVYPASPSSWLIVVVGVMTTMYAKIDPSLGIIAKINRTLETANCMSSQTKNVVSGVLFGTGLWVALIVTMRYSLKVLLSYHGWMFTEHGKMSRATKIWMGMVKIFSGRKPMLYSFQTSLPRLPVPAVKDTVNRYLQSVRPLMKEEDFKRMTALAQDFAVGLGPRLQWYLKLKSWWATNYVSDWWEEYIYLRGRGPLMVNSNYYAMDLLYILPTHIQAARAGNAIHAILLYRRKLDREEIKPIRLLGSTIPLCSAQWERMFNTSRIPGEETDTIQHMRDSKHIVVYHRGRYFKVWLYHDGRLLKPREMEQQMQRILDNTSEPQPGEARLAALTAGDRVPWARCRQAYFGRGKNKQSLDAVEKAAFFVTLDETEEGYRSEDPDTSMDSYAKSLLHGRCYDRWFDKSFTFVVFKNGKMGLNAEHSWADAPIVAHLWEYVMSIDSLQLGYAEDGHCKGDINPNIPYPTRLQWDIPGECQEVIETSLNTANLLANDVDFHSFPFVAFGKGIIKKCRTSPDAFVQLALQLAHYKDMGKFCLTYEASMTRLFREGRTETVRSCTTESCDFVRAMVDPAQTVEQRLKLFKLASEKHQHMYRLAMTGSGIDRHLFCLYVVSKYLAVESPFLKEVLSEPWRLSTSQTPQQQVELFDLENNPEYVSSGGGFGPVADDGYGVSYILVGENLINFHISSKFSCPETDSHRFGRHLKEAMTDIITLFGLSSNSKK

[5] = target: T5, Carnitine O-palmitoyltransferase 1, liver isoform (Rattus norvegicus, UniProt P32198); experiment: as §2
T5 sequence (P32198 whole entry): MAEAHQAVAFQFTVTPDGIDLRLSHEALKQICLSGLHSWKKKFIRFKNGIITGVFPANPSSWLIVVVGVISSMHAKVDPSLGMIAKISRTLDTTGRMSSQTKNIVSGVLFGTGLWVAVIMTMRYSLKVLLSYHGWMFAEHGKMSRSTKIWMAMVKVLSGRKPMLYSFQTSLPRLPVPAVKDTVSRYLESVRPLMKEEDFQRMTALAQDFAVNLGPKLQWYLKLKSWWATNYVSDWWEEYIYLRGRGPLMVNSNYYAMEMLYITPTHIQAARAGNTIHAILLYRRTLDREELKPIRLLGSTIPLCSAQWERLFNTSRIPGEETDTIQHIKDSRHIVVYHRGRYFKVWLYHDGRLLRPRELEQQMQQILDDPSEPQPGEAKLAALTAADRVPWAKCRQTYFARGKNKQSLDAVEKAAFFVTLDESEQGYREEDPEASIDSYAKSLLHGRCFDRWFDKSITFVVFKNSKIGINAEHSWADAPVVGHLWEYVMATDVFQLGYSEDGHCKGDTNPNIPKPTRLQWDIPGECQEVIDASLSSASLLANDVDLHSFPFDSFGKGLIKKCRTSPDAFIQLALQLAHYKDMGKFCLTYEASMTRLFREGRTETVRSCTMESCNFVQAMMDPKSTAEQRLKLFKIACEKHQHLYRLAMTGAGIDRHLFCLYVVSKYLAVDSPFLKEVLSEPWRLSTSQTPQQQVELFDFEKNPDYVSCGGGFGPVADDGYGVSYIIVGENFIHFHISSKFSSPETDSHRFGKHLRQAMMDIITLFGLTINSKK

[6] = SUPPLEMENTARY: Lyophilisation Solubility Assay (LYSA); format: physicochemical; conditions: read-out: Kinetic_solubility
[7] = SUPPLEMENTARY: Lipophilicity (log D) Determination by high-throughput shake-flask; format: physicochemical; conditions: octanol/water
[8] = SUPPLEMENTARY: PAMPA permeability assay; format: physicochemical; conditions: read-out: Permeability

| IC50 [1] [µM] | IC50 [2] [µM] | IC50 [3] [µM] | IC50 [4] [µM] | IC50 [5] [µM] | solubility kinetic [6] [µg/mL] | logD [7] | Papp [8] [×10⁻⁶ cm/s] | SMILES |
| --- | --- | --- | --- | --- | --- | --- | --- | --- |
| 1.16 | 28.4 | 67.5 | 0.0515 | 0.0625 | 399 (≈ 739 µM) | -0.12 | 2.43 | COc1ccc(Cl)cc1S(=O)(=O)N(C)c1cc(C(=O)Nc2nc(CC(=O)O)cs2)cc2c1OCO2 |
| 4.05 | 20.7 | 29 | 0.219 | 0.249 | > 710 | 0.58 | 2.54 | COc1ccc(Cl)cc1S(=O)(=O)N(C)c1cc(C(=O)Nc2ccc(C(=O)O)cc2)cc2c1OCCO2 |
| 1.56 | > 100 | > 100 | 0.0805 | 0.11 | 382 (≈ 690 µM) | -0.18 | 1.28 | COc1ccc(Cl)cc1S(=O)(=O)N(C)c1cc(C(=O)Nc2nc(CC(=O)O)cs2)cc2c1OCCO2 |
| 1.75 | 17.8 | 27.1 | 0.133 | 0.122 | 13 (≈ 25.1 µM) | 0.26 | 2.06 | COc1ccc(Cl)cc1S(=O)(=O)N(C)c1cc(C(=O)Nc2ccc(C(=O)O)cc2)cc2c1OCO2 |
| 12 | 38.6 | > 100 | 0.0151 | 0.0101 | 133 (≈ 252 µM) | 0.98 | 0.27 | COc1ccc(Cl)cc1S(=O)(=O)c1cn(CCCC(=O)O)c2ccc(C(=O)Nc3ccccc3)cc12 |
| > 100 | > 100 | > 100 | 0.0438 | 0.0205 | < 1 | 3.4 | 0.06 | COc1ccc(Cl)cc1S(=O)(=O)c1cn(CCO)c2ccc(C(=O)Nc3ccccc3)cc12 |
| > 100 | > 100 | > 100 | 0.045 | 0.0101 | < 1 | 3.62 | 0.06 | COc1ccc(Cl)cc1S(=O)(=O)c1cn(CCCO)c2ccc(C(=O)Nc3ccccc3)cc12 |
| 8.1 | > 100 | > 100 | 0.0847 | 0.0999 | > 526 | 1.15 | 0.23 | COc1ccc(Cl)cc1S(=O)(=O)N1CCc2ccc(C(=O)Nc3ccn(CC(=O)O)n3)cc21 |
| 9.89 | > 100 | > 100 | 0.213 | 0.171 | > 675 | 1.27 | 0.09 | COc1ccc(Cl)cc1S(=O)(=O)N1CCOc2ccc(C(=O)Nc3ccn(CC(=O)O)n3)cc21 |
| > 100 | > 100 | > 100 | 0.027 | 0.0222 | 8 (≈ 16.8 µM) | 1.94 | 0.91 | Cc1cc(C)cc(S(=O)(=O)c2nn(CCC(=O)O)c3ccc(C(=O)Nc4ccccc4)cc23)c1 |
| 1.25 | 1.36 | 4.34 | 0.0512 | 0.0264 | 40 (≈ 89 µM) | 1.89 | 0.03 | Cc1cc(C)cc(S(=O)(=O)c2n[nH]c3ccc(C(=O)Nc4ccc(C(=O)O)cc4)cc23)c1 |
| 2.57 | 2.46 | 10 | 0.0749 | 0.0272 | 14 (≈ 30.2 µM) | 2.21 | 0.76 | Cc1cc(C)cc(S(=O)(=O)c2nn(C)c3ccc(C(=O)Nc4ccc(C(=O)O)cc4)cc23)c1 |
| 5.9 | > 100 | > 100 | 0.0208 | 0.014 | 203 (≈ 405 µM) | 0.31 | 1.83 | COc1ccc(Cl)cc1S(=O)(=O)N1CC(C(=O)O)Cc2ccc(C(=O)Nc3ccccc3)cc21 (configuration not stated) |
| > 100 | > 100 | > 100 | 0.511 | 0.555 | 129 (≈ 339 µM) | 2.65 | 5.2 | Cc1cc(-c2n[nH]c([C@H]3CCCCN3C(=O)COc3ccccc3)n2)n(C)n1 |

Reference: ChEMBL document CHEMBL3431459, “Roche carnitine palmitoyltransferase modulator screening data (supplementary data associated with the publication CHEMBL2216752)”
